In patent publication US7553848B2, “Vanilloid receptor ligands and their use in treatments” (Amgen Inc., priority 2004, dated 2009) one finds melting point data, which are given here for seven compounds.

Structures are written as SMILES.

One may read the melting point as the temperature of the solid-liquid transition. For `CC(C)(C)c1ccc2cc(C(=O)Nc3ccc4c(c3)OCCO4)ncc2c1` [Example 11, 7-tert-Butyl-isoquinoline-3-carboxylic acid (2,3-dihydro-benzo[1,4]dioxin-6-yl)-amide], the melting point lay in the range of 154 to 157 °C.

In turn, `O=C(Nc1ccc2c(c1)OCCO2)c1ccc2cc(Br)ccc2c1` [Example 14, 6-Bromo-naphthalene-2-carboxylic acid (2,3-dihydro-benzo[1,4]dioxin-6-yl)-amide] registered a melting point of 222.7 °C.

Compound `CC(=O)Nc1nc2c(NC(=O)c3cc4ccc(C(F)(F)F)cc4s3)cccc2s1` showed a melting point of 285.4 to 285.9 °C.

Take `O=C(Nc1ccc2c(c1)OCCO2)c1cnc2cc(C(F)(F)F)ccc2c1Cl` [Example 13, 4-Chloro-7-trifluoromethyl-quinoline-3-carboxylic acid (2,3-dihydro-benzo[1,4]dioxin-6-yl)-amide]: the melting point was determined as 296 °C.

Compound `O=C(Nc1ccc2c(c1)OCCO2)c1cc2ncc(C(F)(F)F)cc2s1` [Example 12, 6-Trifluoromethyl-thieno[3,2-b]pyridine-2-carboxylic acid (2,3-dihydro-benzo[1,4]dioxin-6-yl)-amide] displayed a melting point of 247 °C.

On to `CC(=O)Nc1nc2c(NC(=O)c3ccc4cc(Br)ccc4c3)cccc2s1` [Example 4, 6-Bromo-naphthalene-2-carboxylic acid (2-acetylamino-benzothiazol-4-yl)-amide], for which the melting point was determined as 241.6 °C.

With `CC(C)(C)c1ccc2c(c1)CN[C@H](C(=O)Nc1ccc3c(c1)OCCO3)C2.Cl`, the melting point turned out to be 134 °C.
